In US11229638B2, “Therapeutic heterocyclic compounds” (Gilead Sciences, Inc., priority 2017, dated 2022):
pEC50: −log10 of the molar value.

Target: T1, IDO1 (Homo sapiens, UniProt P14902)
T1 construct: HeLa cells were treated with a test compound in the presence of IFNγ, which induces IDO1 expression; host or cells: H1-HeLa cells, IDO1 induced with IFN-gamma
Experiment: Cell-Based (HeLa) Assay for Measurement of IDO1 Inhibition
Details: H1-HeLa cells, IDO1 induced by IFNγ, 48 hour incubation, kynurenine in supernatant (absorbance at 480 nm); geometric mean of a minimum of four determinations
Method: Example 509. Cell-Based (HeLa) Assay for Measurement of IDO1 Inhibition
To measure IDO1 inhibition in tissue culture, HeLa cells were treated with a test compound in the presence of IFNγ, which induces IDO1 expression. Following incubation, cell supernatants were assayed for kynurenine levels, an indicator of IDO1 activity.
H1-HeLa cells (ATCC # CRL-1958) were seeded in 384-well plates (Greiner #82051-282) at a volume of 50 µL/well in DMEM (Corning #15-018-CM) supplemented with 10% FBS (Corning #35-011-CV) and 1% P/S/G (Corning #30-009-CL) at a density of 1,250 cells/well and incubated overnight at 37° C., 5% CO2/100% humidity. The following day, the test compounds were added in DMSO (0.5% final) at various concentrations, and IDO1 was inducibly expressed by the addition of 50 uL/well of 50 ng/mL of INFγ (Peprotech #300-02) in cell plating media. As a positive control, 50 uL of the cell plating media without IFNγ was added to several wells. Following a 48 hour incubation, the plates were spun down at 1,200 RPM for 5 min at 10° C. […]
Data in Table 1 were normalized based on positive (−IFNγ) and negative (+IFNγ) controls and EC50 values were calculated from the fit of the dose-response curves to a four-parameter equation. […]

T1 sequence (P14902 whole entry): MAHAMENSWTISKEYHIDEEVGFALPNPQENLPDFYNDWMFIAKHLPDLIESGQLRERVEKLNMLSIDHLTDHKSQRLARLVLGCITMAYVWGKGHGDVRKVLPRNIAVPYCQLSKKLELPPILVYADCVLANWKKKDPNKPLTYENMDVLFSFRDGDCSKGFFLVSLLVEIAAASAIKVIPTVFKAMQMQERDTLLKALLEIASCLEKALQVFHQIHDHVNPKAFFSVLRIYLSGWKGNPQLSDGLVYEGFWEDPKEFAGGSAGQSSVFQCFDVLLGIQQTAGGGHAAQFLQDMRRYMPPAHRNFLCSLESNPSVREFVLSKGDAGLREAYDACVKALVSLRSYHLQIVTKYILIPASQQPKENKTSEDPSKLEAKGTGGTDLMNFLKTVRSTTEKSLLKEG

Row | Compound | pEC50
1 | Cc1ncc(-c2cccn3c(C4CCOC4)ncc23)cc1C(=O)Nc1ccc(F)cc1 (centres unmarked) [Example 76, N-(4-fluorophenyl)-2-methyl-5-(3-(tetrahydrofuran-3-yl)imidazo[1,5-a]pyridin-8-yl)nicotinamide] | 5.30
2 | N-(4-chlorophenyl)-5-(3-(2,3-difluorophenyl)imidazo[1,5-a]pyridin-8-yl)-2-methylnicotinamide [Example 61] | 7.52
